The test system of one test is Mamu-B*098. As to the kind of experiment: X-ray crystal structure of the Mamu-B*098:C14nef5 complex. The following applies: crystal structure at 1.76 Å, Mamu-B*098 with Cys167 mutated to Ser, rhesus β2m; PDB 4ZFZ. The format is binding, rhesus macaque. Here is the method:
Recombinant proteins were prepared as described previously with some modifications. Briefly, DNA constructs encoding the ectodomain of Mamu-B*098 (from Gly1 to Pro276 with the unpaired Cys167 mutated to Ser and a Met-Ala added to the N terminus) and rhesus β2m (from Ile1 to Met99 with a Met-Ala added to the N terminus) were synthesized and cloned into pLM1. The expression plasmids were introduced into the E. coli Rosetta 2 (DE3) pLysS strain (Novagen, Madison, WI) and colonies were inoculated into a Terrific Broth supplemented with 50 μg ml^−1 ampicillin. Isopropyl-β-D-thiogalactoside was added to the culture at a final concentration of 0.5 mM when the OD600 value of the culture reached 0.5. After an additional 6-h culture, bacteria were harvested and lysed in a buffer containing 50 mM Tris-HCl pH 8.0, 1 mM EDTA, 0.1% NaN3, 10 mM dithiothreitol (DTT), 100 mM NaCl, 1% Triton X-100, 1% deoxycholate and 5 mM MgCl2, followed by a treatment with DNase I. After 6 h of stirring, the samples were centrifuged and the pellets were washed twice with a wash buffer containing 50 mM Tris-HCl pH 8.0, 1 mM EDTA, 0.1% NaN3, 1 mM DTT, 100 mM NaCl and 0.5% Triton X-100, and once with a rinse buffer containing 50 mM Tris-HCl pH 8.0, 1 mM EDTA, 0.1% NaN3 and 1 mM DTT. […]

Test [1] relates to 2N5.1 (Mamu-B*098 Cys167 to Ser mutant). The experiment in a line: Presentation of C14nef5 to 2N5.1 by the cysteine to serine (position 167) mutant of Mamu-B*098. The following applies: data not shown. The format is cell-based, rhesus macaque.
Another test deals with 2N5.1. The following applies: cited from earlier work. The source says: For example, human and simian immunodeficiency viruses (HIV and SIV) borrow host-derived N-myristoyltransferase and its substrate myristoyl-CoA, to couple a 14-carbon saturated fatty acid (myristic acid) to the N-terminal glycine residue of the Nef protein. […] To obtain an insight into its molecular identity, we generated several hundred monoclonal antibodies that recognized rhesus PBMCs and tested their abilities to block the presentation of C14nef5 to 2N5.1. […] The myristoyl group of the lipopeptide adopted a U-shaped configuration and fit perfectly with the extended B pocket. Furthermore, inter- and intramolecular VDW forces established throughout the acyl chain synergistically reinforced its stable binding to the B pocket. These structural f ... || (+ 1 further places)

Data on one substance can be found in article PMC4735555, “Crystal structure of the N-myristoylated lipopeptide-bound MHC class I complex” (Nature Communications, 2016).

“C14-Gly-Gly-Ala-Ile-Ser [C14nef5, N-myristoylated 5-mer peptide (C14-Gly-Gly-Ala-Ile-Ser; C14nef5) derived from the SIV Nef protein]”: the “electron density in the Ag-binding groove of Mamu-B*098” value in the test with Mamu-B*098 is reported as “Continuous electron density corresponding to C14nef5 was observed in the Ag-binding groove”. Besides, the “effect of Cys167 to Ser mutation on ability of Mamu-B*098 to present C14nef5 to 2N5.1” value in test [1] is on record as “affected neither the overall secondary structure nor the ability of Mamu-B*098 to present C14nef5 to 2N5.1”. Besides, in the test with 2N5.1, the “antigenic activity, C14nef5 versus its Ser to Thr mutant” value was “virtually identical antigenic activities” and the “recognition by rhesus macaque CD8+ CTL line 2N5.1” value is “specifically recognizes”. In addition, the “requirement of PBMCs for recognition by 2N5.1” value with 2N5.1 (irradiated PBMCs) is reported as “requires the presence of irradiated peripheral blood mononuclear cells (PBMCs)”.
